This note sets out measurements from patent US20240199683A1, “ANDROGEN RECEPTOR MODULATORS” (priority 2021, published 2024).

SMILES strings stand for the structures.

As a reminder, the EC50 is the concentration giving half of the maximal effect. High values mean a less potent agent, low ones a more potent agent. Broadly, the IC50 is the concentration that gives 50% inhibition. Low values mean greater potency, high ones weaker potency. By Ki is commonly meant the equilibrium dissociation constant of an inhibitor or competing ligand from its target. A low value points to a stronger hold on the target.

Assay [1] concerns the target T1, human AR (Homo sapiens, UniProt P10275).
T1 construct: purchased Indigo Biosciences
T1 sequence (P10275 1-920): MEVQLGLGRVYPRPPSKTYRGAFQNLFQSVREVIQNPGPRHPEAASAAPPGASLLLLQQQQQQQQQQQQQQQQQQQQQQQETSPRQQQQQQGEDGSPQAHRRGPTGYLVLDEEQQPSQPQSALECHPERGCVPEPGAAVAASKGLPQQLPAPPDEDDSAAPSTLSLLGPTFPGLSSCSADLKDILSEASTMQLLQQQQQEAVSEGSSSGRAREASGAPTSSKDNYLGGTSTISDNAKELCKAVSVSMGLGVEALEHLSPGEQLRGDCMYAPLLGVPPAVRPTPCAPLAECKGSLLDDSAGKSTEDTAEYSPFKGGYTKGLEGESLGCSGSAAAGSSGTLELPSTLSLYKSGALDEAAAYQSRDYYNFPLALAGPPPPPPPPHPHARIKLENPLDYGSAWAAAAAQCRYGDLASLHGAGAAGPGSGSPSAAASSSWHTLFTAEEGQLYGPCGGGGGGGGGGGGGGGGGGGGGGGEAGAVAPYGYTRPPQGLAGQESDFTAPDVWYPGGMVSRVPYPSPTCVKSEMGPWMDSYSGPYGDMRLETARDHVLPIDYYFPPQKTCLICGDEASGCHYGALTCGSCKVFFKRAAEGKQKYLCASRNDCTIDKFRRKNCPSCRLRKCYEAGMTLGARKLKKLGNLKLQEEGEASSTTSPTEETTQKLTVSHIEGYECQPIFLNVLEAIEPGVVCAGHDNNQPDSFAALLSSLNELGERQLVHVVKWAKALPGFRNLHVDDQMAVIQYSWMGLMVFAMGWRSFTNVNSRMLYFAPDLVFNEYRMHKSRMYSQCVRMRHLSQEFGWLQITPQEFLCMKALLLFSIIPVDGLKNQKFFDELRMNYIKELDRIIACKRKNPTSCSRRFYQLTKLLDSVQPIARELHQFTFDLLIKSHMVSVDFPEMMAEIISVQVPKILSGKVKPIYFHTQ
Description: human AR agonist assay (Indigo Biosciences). The class given is cell-based. The source says:
(§1) The activity of a compound can be determined using various known methods. For example, AR assays can be used. Such AR assays include binding assays using, for example, cells transfected with the human androgen receptor. Several cell based model systems that allow sensitive detection and monitoring of steroids or other compounds with AR bioactivity are known. Most cell based AR reporter models use transgenic gene constructs that include an androgen response element (ARE) that controls reporter gene (e.g., lucifersrase) expression. For example, a human AR Reporter Assay System is commercially available from Indigo Biosciecnes. The principle application of such an assay product is to quantify functional activities, either agonist or antagonist, that a compound may exert against the human androgen receptor. […] In addition, the anti-proliferative activity of a compound can be determined using various known methods, including in vitro and in vivo antiproliferative assays using cancer cell lines such as a prostate cancer cell line.
(§2) The activity of certain compounds were tested in a human AR agonist assay and a human AR antagonist assay (Indigo Biosciences).

Assay [2] addresses T1, human AR. Description: human AR antagonist assay (Indigo Biosciences). Format: cell-based.
Text: as §1, §2

Another assay addresses T2, androgen receptor (Homo sapiens, UniProt P10275).
T2 sequence (P10275 1-920): T1 sequence (P10275 1-920)
The assay can be described thus: Ki of Table A (method not described; AR binding assays mentioned generally).
Text: as §1

Setting [3] is: Table A, values match the human AR antagonist assay.

`C[C@]12CC[C@@]3(C)C(=C1C[C@H](O)C2)CCC1=CC(=O)CC[C@@H]13` [Compound 103, (9R,10S,13R,16R)-16-hydroxy-9,13-dimethyl-1,2,6,7,9,10,11,12,13,15,16,17-dodecahydro-3H-cyclopenta[a]phenanthren-3-one] came in with a concentration giving a half-maximal response (EC50) at human AR [1] of 8950 µM.

`C[C@]12CC[C@@]3(C)C(=C1C[C@@H](O)C2)CC[C@H]1CC(=O)CC[C@@H]13` [Compound 106] yielded an IC50 on human AR [2] (setting [3]) of 1.8 µM.

At human AR [2] (setting [3]), `C[C@]12CC[C@@]3(C)C(=C1C[C@H](O)C2)CC[C@H]1CC(=O)CC[C@@H]13` [Compound 109] showed a 50% inhibitory concentration (IC50) of 6.8 µM. Against the preceding compound, the IC50 is about 3.8-fold higher.

The compound `C[C@]12CCC(=O)C=C1CCC1=C2CC[C@]2(C)C[C@H](O)[C@@H]3C[C@@]132` [Compound 201] displayed a HillSlope on human AR [2] (Table 4, antagonist mode) of 1.375. At human AR [2] (setting [3]), this compound displayed an IC50 of 0.218 µM. On androgen receptor, this compound registered an inhibition constant Ki of 1.4 µM.

On human AR [2] (Table 4, antagonist mode), `C[C@]12CCC3=C(CC[C@H]4CC(=O)CC[C@]34C)[C@@]13C[C@H]3[C@@H](O)C2` [Compound 202, (2S,2aR,3aR,5aS,9aS,11aR)-2-hydroxy-9a, 11a-dimethyl-1,2a,3,4,5a,6,8,9,9a,10,11,11a-dodecahydro-2H-cyclopropa[1,5]cyclopenta[1,2-a]phenanthren-7(5H)-one] came in with a HillSlope of 1.360 and an IC50 of 0.0605 µM. On human AR [2] (setting [3]), this compound displayed a half-maximal inhibitory concentration (IC50) of 0.061 µM. At androgen receptor, this compound registered an inhibition constant (Ki) of 0.837 µM.

On to `C[C@]12CCC3=C(CC[C@@H]4CC(=O)CC[C@]34C)[C@@]13C[C@H]3[C@@H](O)C2` [Compound 203], for which the HillSlope at human AR [2] (Table 4, antagonist mode) came out at 1.202. Further, the 50% inhibitory concentration (IC50) against human AR [2] (Table 4, antagonist mode) amounted to 1.18 µM; against human AR [2] (setting [3]), 1.18 µM.

As for `CC(C)(O)C(=O)Nc1ccc([N+](=O)[O-])c(C(F)(F)F)c1` [hydroxyflutamide, reference compound], the HillSlope at human AR [2] (Table 4, antagonist mode) stood at 1.282.
